The structures appear in SMILES notation. Several values for one entry are separate records, joined by “and”; a condition that tells them apart may be missing. Equal values may be shown once. Some results are limits rather than exact numbers.

The results in this text go back to article PMC9389588, “1,6-epi-Cyclophellitol Cyclosulfamidate Is a Bona Fide Lysosomal α-Glucosidase Stabilizer for the Treatment of Pompe Disease” (Journal of the American Chemical Society, 2022).

The target in experiment [1] is α-glucosidase GAA (Myozyme) (Homo sapiens, UniProt P10253). In words: in vitro apparent IC50, GAA (Myozyme), 4-MU-α-D-glucopyranoside. The settings on record: Myozyme 47 nM, pH 4.0, 30 min preincubation, mean ± SD. The format is biochemical. Also noted: purchased Sanofi Genzyme.
The target in experiment [2] is T1, β-glucosidase GBA1 (Cerezyme) (Homo sapiens, UniProt P04062, R534H).
T1 construct: purchased
T1 sequence (P04062 40-536 R534H): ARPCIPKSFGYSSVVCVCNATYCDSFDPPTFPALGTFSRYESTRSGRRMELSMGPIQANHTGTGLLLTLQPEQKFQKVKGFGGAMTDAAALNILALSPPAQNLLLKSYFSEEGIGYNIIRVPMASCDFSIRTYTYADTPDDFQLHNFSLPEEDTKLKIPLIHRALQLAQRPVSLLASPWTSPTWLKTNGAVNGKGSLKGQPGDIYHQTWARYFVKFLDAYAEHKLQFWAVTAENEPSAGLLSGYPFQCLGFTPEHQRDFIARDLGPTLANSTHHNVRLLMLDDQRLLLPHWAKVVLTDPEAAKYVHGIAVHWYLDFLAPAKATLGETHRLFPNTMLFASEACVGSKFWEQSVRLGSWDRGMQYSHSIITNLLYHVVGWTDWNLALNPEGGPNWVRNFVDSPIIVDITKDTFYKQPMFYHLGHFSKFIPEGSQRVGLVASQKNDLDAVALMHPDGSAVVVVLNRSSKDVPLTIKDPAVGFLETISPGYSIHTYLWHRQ
In words: in vitro apparent IC50, GBA1 (Cerezyme), 4-MU-β-D-glucopyranoside. The format is biochemical. The following applies: pH 5.2, mean ± SD, read-out: in vitro GBA IC50.

In experiment [3] the target is T2, glucosylceramide synthase (GCS) (Mus musculus, UniProt O88693).
T2 construct: endogenous in cells; host or cells: RAW 264.7
T2 sequence (O88693 1-394): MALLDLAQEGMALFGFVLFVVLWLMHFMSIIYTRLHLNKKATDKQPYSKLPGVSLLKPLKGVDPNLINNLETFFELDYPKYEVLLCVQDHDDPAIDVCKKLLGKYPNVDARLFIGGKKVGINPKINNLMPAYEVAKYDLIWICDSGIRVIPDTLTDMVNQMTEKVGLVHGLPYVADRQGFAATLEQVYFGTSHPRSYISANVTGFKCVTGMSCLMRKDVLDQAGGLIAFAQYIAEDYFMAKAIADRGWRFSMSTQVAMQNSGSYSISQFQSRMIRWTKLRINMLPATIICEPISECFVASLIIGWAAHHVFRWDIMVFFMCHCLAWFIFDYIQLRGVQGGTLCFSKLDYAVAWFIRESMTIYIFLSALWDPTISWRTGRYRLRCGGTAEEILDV
In words: in situ cell inhibition of GCS in RAW 264.7 cells, glucosylation of C6-NBD-ceramide. The class given is cell-based. The settings on record: mean ± SD.

Experiment [4] has as its target T3, ER α-glucosidase II (GANAB) (Homo sapiens, UniProt Q14697).
T3 construct: GANAB (from Pompe Disease Fibroblast Lysates); endogenous in cells; host or cells: human fibroblasts (lysate)
T3 sequence (Q14697 29-944): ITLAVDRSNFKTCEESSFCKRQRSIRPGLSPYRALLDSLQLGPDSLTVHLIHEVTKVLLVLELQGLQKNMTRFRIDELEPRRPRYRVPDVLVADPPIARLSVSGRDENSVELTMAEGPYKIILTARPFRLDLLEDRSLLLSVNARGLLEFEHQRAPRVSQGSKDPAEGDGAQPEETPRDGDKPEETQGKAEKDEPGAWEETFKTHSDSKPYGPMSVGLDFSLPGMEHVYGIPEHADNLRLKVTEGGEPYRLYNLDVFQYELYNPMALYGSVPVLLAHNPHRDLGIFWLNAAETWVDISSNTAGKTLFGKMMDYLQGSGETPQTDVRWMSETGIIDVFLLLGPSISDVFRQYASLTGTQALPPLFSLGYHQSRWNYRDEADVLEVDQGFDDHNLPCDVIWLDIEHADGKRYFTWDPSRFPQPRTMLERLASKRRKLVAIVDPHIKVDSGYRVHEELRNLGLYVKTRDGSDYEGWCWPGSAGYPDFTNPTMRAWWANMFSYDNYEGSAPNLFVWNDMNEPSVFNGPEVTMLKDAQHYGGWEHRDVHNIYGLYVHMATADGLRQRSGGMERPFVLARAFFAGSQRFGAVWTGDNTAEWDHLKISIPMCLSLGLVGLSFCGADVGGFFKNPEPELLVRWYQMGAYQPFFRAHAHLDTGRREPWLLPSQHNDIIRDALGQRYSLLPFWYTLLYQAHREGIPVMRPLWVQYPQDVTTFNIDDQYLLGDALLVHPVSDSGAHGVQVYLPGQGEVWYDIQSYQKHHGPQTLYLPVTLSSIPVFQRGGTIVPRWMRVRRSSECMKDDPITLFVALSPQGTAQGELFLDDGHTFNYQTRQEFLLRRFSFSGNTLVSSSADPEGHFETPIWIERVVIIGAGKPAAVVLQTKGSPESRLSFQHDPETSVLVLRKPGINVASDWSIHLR
T3 sequence (P14314 15-528 partner): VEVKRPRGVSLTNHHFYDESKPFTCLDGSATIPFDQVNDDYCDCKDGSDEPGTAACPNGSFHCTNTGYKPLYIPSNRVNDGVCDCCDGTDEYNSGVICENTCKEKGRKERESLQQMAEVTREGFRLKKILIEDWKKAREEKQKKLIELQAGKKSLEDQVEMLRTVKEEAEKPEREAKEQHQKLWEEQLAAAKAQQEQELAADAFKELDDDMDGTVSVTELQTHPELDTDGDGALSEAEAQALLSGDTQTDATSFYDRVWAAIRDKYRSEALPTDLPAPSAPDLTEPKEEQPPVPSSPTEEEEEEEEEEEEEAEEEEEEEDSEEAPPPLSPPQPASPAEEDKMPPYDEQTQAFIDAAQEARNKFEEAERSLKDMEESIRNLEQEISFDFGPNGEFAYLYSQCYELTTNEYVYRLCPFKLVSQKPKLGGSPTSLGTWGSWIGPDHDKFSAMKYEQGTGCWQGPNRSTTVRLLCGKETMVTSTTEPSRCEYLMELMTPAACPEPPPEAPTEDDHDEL
In words: in vitro apparent IC50, GANAB in fibroblast lysates, 4-MU-α-D-glucopyranoside. The following applies: for IC50: apparent IC50, Pompe disease fibroblast lysates, pH 7.0, mean ± SD. The format is biochemical.

The target in the next experiment is T4, β-glucosidase GBA2 (Homo sapiens, UniProt Q9HCG7).
T4 construct: expressed in transfected cells; host or cells: HEK293T
T4 sequence (Q9HCG7 1-927): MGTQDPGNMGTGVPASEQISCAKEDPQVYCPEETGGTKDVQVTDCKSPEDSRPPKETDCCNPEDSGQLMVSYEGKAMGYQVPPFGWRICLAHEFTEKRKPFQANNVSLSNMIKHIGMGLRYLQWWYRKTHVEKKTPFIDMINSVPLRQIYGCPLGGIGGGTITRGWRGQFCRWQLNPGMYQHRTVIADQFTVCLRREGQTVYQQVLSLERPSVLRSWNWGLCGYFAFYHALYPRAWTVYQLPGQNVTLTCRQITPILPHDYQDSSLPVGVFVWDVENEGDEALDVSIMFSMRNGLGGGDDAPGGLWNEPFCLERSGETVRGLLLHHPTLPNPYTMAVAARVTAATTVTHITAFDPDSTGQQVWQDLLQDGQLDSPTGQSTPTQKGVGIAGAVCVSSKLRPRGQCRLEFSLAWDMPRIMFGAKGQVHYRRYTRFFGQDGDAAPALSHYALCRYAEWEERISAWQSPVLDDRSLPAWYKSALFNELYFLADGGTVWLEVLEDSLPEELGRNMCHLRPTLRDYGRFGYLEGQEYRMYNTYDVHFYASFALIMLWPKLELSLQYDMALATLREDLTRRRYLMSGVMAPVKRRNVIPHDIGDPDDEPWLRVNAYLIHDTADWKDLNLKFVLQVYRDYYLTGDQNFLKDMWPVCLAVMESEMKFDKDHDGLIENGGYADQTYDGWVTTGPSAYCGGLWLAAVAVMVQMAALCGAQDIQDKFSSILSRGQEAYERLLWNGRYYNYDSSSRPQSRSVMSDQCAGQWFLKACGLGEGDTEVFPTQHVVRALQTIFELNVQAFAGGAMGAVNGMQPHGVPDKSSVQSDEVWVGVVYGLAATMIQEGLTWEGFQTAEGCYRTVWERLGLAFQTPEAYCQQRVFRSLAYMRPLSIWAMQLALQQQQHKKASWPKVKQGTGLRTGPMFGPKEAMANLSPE
Kind of experiment: in vitro apparent IC50, GBA2-overexpressing HEK293T lysate. The format is biochemical. The following applies: for IC50: apparent IC50, pH 5.8, mean ± SD.

What is called IC50 is the midpoint of a concentration-inhibition curve. In the case of `O=S1(=O)N[C@@H]2[C@H](O)[C@@H](O)[C@H](O)[C@@H](CO)[C@@H]2N1` [compound 8], the IC50 in experiment [1] was greater than 500 µM; in experiment [2], greater than 500 µM; in experiment [3] it was greater than 50 µM; in experiment [4], greater than 500 µM; on β-glucosidase GBA2, greater than 500 µM.
For `CN1[C@H]2[C@H](CO)[C@@H](O)[C@H](O)[C@@H](O)[C@H]2OS1(=O)=O` [compound 7], the IC50 in experiment [1] is greater than 1000 µM; in experiment [2] it was 93 µM and 93.4 µM; in experiment [3] it was greater than 50 µM; in experiment [4], 132 ± 11.8 µM; on β-glucosidase GBA2, 652 ± 87.3 µM.
In the case of `CN1[C@@H]2[C@H](O)[C@@H](O)[C@H](O)[C@@H](CO)[C@@H]2OS1(=O)=O` [compound 5], the IC50 is 485 ± 146 µM in experiment [1], greater than 500 µM in experiment [2], greater than 500 µM in experiment [4] and 393 ± 93.7 µM on β-glucosidase GBA2. The “activity toward GANAB, in words” value in experiment [4] was “inactive”.
As usually defined, the inhibition is the share of the control response that was lost under treatment. As for `O=S1(=O)O[C@@H]2[C@H](O)[C@@H](O)[C@H](O)[C@@H](CO)[C@@H]2O1` [compound 3, 1,6-epi-cyclophellitol cyclosulfate, reference compound], the IC50 in experiment [1] was 0.048 µM; in experiment [2], greater than 500 µM; in experiment [4], 0.026 µM. For the same molecule, at β-glucosidase GBA2 (at 500 μM), the inhibition at 500 µM is 62%.
